Some results are limits rather than exact numbers.

A short description of this series: Solubility in water of 20° C. Type of series: physicochemical. The settings on record: wt. %. From the text: In this table, vanillyl-n-butyl ether will be abbreviated as VBE.

For the molecule `CCCCOCc1ccc(O)c(OC)c1` [VBE, vanillyl-n-butyl ether], the “Solubility of VBE in terms of concentration” value is listed as less than 0.002%.
